Data reported in US6399782B1, “Benzimidazole inhibitors of fructose 1,6-bisphosphatase” (Metabasis Therapeutics, Inc., priority 1997, dated 2002).
Blank lines part the entries; values can stand above or below the compound they belong to.

What was measured:
[1] = target: T1, mouse liver FBPase (Mus musculus, UniProt Q9QXD6); assay: Inhibition of mouse liver FBPase; assay type: biochemical; conditions: partially purified mouse liver fraction
T1 construct: This partially purified fraction was used for enzyme assays; from tissue; host or cells: mouse liver, 45-75% ammonium sulfate fraction
T1 sequence (Q9QXD6 2-338 limits assumed): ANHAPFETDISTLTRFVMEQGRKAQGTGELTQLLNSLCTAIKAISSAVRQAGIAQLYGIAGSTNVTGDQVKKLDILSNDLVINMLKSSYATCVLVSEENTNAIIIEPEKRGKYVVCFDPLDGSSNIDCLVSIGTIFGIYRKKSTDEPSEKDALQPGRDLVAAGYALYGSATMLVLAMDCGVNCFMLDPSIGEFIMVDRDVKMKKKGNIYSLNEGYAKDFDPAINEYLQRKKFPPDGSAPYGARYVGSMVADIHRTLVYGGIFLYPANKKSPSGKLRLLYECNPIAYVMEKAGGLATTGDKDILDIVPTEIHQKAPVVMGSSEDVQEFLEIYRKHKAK
Protocol: Enzymatic activity was measured spectrophotometrically in reactions that coupled the formation of product (fructose 6-phosphate) to the reduction of dimethylthiazoldiphenyltetrazolium bromide (MTT) via NADP and phenazine methosulfate (PMS), using phosphoglucose isomerase and glucose 6-phosphate dehydrogenase as the coupling enzymes. Reaction mixtures (200 μl) were made up in 96-well microtitre plates, and consisted of 50 mM Tris-HCl, pH 7.4, 100 mM KCl, 5 mM EGTA, 2 mM MgCl2, 0.2 mM NADP, 1 mg/ml BSA, 1 mM MTT, 0.6 mM PMS, 1 unit/mL phosphoglucose isomerase, 2 units/mL glucose 6-phosphate dehydrogenase, and 0.150 mM substrate (fructose 1,6-bisphosphate). Inhibitor concentrations were varied from 0.01 μM to 10 μM.
Mouse liver FBPase was obtained by homogenizing freshly isolated mouse liver in 100 mM Tris-HCl buffer, pH 7.4, containing 1 mM EGTA, and 10% glycerol. […] This fraction was redissolved in the homogenization buffer and desalted on a PD-10 gel filtration column (Biorad) eluted with same. This partially purified fraction was used for enzyme assays. Both rat liver and mouse liver FBPase were assayed as described for human liver FBPase.

[2] = test system: 18-hour fasted Sprague Dawley rats; assay: Glucose lowering following oral administration; assay type: in vivo, rat
Protocol: The compound was prepared in deionized water, adjusted to neutrality with sodium hydroxide, and brought into solution by sonication prior to administration. Blood glucose was measured immediately prior to dosing, and at 1 hour intervals thereafter. Blood samples were obtained from the tail vein, and measurements made by means of a Hemocue glucose analyzer (Hemocue Inc, Mission Viejo, Calif.) used according to the manufacturer's instructions. […] The average glucose lowering in the four responding animals was 62±8.6% relative to saline-treated controls at the 1 hour time point.

[3] = test system: Zucker Diabetic Fatty rats; assay: Inhibition of gluconeogenesis in Zucker Diabetic Fatty rats (14C-bicarbonate incorporation into glucose); assay type: in vivo, rat; conditions: 50 mg/kg bolus via jugular catheter
Protocol: Nine Zucker Diabetic Fatty rats (16-weeks old, Genetics Models Inc., Indianapolis, Ind.) were fasted at midnight and instrumented with jugular catheters the following morning. […] After 50minutes a bolus of^14 C-sodium bicarbonate ([…]) was administered via the same route. 20 minutes later, the animals were quickly anesthetized with intravenous pentobarbitol and a blood sample (1.5 mL) was taken by cardiac puncture. Blood (0.5 mL) was diluted into 6 mL deionized water and protein precipitated by addition of 1 mL zinc sulfate (0.3 N) and 1 mL barium hydroxide (0.3 N). The mixture was centrifuged (20 minutes, 1000×g) and 5 mL of the resulting supernatant was then combined with 1 g of a mixed bed ion exchange resin (1 part AG 50W-X8, 100-200 mesh, hydrogen form and 2 parts of AG 1-X8, 100-200 mesh, acetate form) to separate ^14C-bicarbonate from ^14C-glucose. The slurry was shaken at room temperature for four hours and then allowed to settle. An aliquot of the supernatant (0.5 mL) was then counted in 5 mL scintillation cocktail.

[4] = Analysis of drug levels and liver accumulation in rats; assay type: in vivo; conditions: rat, 20 mg/kg intraperitoneally, one hour post injection
Protocol: Sprague-Dawley rats (250-300 g) were fasted for […] and then dosed intraperitoneally either with saline (n=3) or 20 mgs/kg of FBPase inhibitor (n=4). The vehicle used for drug administration was 10 mM bicarbonate. One hour post injection rats were anesthetized with halothane and a liver biopsy (approx. 1 g) was taken as well as a blood sample (2 ml) from the posterior vena cava. A heparin flushed syringe and needle was used for blood collection. The liver sample was immediately homogenized in ice-cold 10% perchloric acid (3 mL), centrifuged, and the supernatant neutralized with ⅓rd volume of 3 M KOH/3 M KH2CO3. Following centrifugation and filtration, 50 μl of the neutralized extract was ana lyzed for FBPase inhibitor content by HPLC. A reverse phase YMC ODS AQ column ([…]) was used and eluted with a gradient from 10 mM sodium phosphate pH 5.5 to 75% acetonitrile. Absorbance was monitored at 310 nm. […] The methanolic extract was clarified by centrifugation and filtration and then analyzed by HPLC as described above.

[5] = target: T2, hlFBPase (Homo sapiens, UniProt P09467); assay: AMP site binding (displacement of radiolabeled AMP)
T2 construct: made in house; host or cells: E. coli BL21
T2 sequence (P09467 2-338 limits assumed): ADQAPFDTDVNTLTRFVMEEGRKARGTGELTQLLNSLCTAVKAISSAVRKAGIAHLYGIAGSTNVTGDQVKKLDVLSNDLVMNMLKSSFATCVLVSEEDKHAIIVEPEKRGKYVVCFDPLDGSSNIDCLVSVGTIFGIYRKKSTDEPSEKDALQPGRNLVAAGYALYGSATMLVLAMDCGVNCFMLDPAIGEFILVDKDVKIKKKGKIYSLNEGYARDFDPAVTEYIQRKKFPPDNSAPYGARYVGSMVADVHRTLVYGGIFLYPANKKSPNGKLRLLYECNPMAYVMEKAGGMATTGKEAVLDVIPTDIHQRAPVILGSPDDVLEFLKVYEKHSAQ
Protocol: To determine whether compounds bind to the allosteric AMP binding site of hlFBPase, the enzyme was incubated with radiolabeled AMP in the presence of a range of test compound concentrations. The reaction mixtures consisted of […] ^3H-AMP (54 mCi/mmol) and […] test compound in 25 mM Tris-HCl, pH 7.4, 100 mM KCl and 1 mM MgCl2. 1.45 mg of homogeneous FBPase (±1 nmole) was added last. After a 1 minute incubation, AMP bound to FBPase was separated from unbound AMP by means of a centrifugal ultrafiltration unit (“Ultrafree-MC”, Millipore) used according to the instructions of the manufacturer. The radioactivity in aliquots (100 μL) of the upper compartment of the unit (the retentate, which contrains enzyme and label) and the lower compartment (the filtrate, which contains unbound label) were quantified using a Beckman liquid scintillation counter. The amount of AMP bound to the enzyme was estimated by comparing the counts in the filtrate (the unbound label) to the total counts in the retentate.

IC50 [1]: > 20 µM
SMILES: Nc1c(F)ccc2c1nc(-c1ccc(P(=O)(O)O)o1)n2CC1CC1 [Compound 12.61, 4-Amino-5-fluoro-1-cyclopropylmethyl-2-(2-phosphono-5-furanyl)benzimidazole]

liver level [4]: 90 nmol/g | plasma level [4]: 85 µM
SMILES: CCc1cc(F)c(N)c2nc(-c3ccc(P(=O)(O)O)o3)n(CC(C)C)c12 [Compound 12.64]
blood glucose effect, oral 30 mg/kg ([2]; oral gavage 30 mg/kg, 18-hour fasted rats): without effect | blood glucose effect, oral 100 mg/kg ([2]; oral gavage 100 mg/kg, 18-hour fasted rats): without effect | average glucose lowering in the four responding animals ([2]; oral gavage 250 mg/kg, relative to saline-treated controls, 1 hour time point): 62±8.6% | animals with profound hypoglycemia ([2]; oral gavage 250 mg/kg, within 1 hour of administration): 4 out of 5 | reduction of incorporation of 14C-bicarbonate into 14C-glucose [3]: approximately 50% | 14C-Glucose Produced (cpm/mL blood) ([3]; 14C-bicarbonate after 50 minutes, blood 20 minutes later): 32,827 ± 6130 cpm/mL blood | % Glucose Produced ([3]; saline = 100): 49.2%

EC50 ([5]; displacement of 3H-AMP from hlFBPase, read-out: ED50 for AMP displacement): 50 µM
SMILES: CCn1c(-c2ccc(P(=O)(O)O)o2)nc2c(N)cccc21 [Compound 12.1, 4-Amino-1-ethyl-2-[2-(5-phosphono)furanyl]benzimidazole]
displacement of AMP from human liver FBPase (FIG. 3) ([5]; result in words): displaced AMP from human liver FBPase in a dose dependent manner
